Assay [1] deals with T1, Phosphatidylcholine transfer protein (Homo sapiens) (UniProt Q9UKL6).
T1 sequence (whole entry): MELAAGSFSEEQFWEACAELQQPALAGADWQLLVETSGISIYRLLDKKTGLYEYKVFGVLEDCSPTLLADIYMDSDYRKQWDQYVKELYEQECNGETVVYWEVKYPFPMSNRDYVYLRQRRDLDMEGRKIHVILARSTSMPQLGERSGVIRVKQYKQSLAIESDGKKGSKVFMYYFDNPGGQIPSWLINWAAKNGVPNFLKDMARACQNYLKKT
Nature of the assay: Inhibition of PC-TP in human hepatocytes assessed as enhancement of insulin signaling by measuring p-S6K T389 levels at 0.05 to 0.1 uM incubated for 60 mins by immunoblot analysis. In kind it is cell-based. (In general: Immunoblotting shows a protein as a band on a membrane.)

In assay [2] the target is T1, Phosphatidylcholine transfer protein (Homo sapiens). Nature of the assay: Inhibition of PC-TP in human hepatocytes assessed as enhancement of insulin signaling by measuring p-GSK-3beta S9 levels at 0.05 to 0.1 uM incubated for 60 mins by immunoblot analysis. In kind it is cell-based.
The target is the same in assay [3]. Nature of the assay: Inhibition of PC-TP in human hepatocytes assessed as enhancement of insulin signaling by measuring p-AMPK-alpha T172 levels at 0.05 to 0.1 uM incubated for 60 mins by immunoblot analysis. The class given is cell-based.
Assay [4] shares this target. The assay can be described thus: Inhibition of PC-TP in human hepatocytes assessed as enhancement of insulin signaling by measuring p-AKT S473 levels at 0.05 to 0.1 uM incubated for 60 mins by immunoblot analysis. The class given is cell-based.
Assay [5] has the same target. Nature of the assay: Binding affinity to N-terminal His-tagged human PC-TP expressed in Escherichia coli at 5 to 75 uM in presence of TCNQ by fluorescent pyrene-labeled phosphatidylcholine based displacement assay.
Assay [6] shares this target. The assay can be described thus: Binding affinity to N-terminal His-tagged human PC-TP expressed in Escherichia coli assessed as relative binding constant K(rel) at 5 to 75 uM in presence of TCNQ by fluorescent pyrene-labeled phosphatidylcholine based displacement assay relative to control.
Assay [7] deals with T2, Phosphatidylcholine transfer protein (Homo sapiens, UniProt Q9UKL6).
T2 sequence (Q9UKL6 whole entry): T1 sequence (whole entry)
The assay can be described thus: Inhibition of N-terminal His-tagged human PC-TP expressed in Escherichia coli using NBD-PC and donor and acceptor small unilamellar vesicles by fluorescence quench assay.

The source made the active and inactive calls. The calls are words filed in the database; no cut-off is given here.

As for `O=C(Nc1cc(Cl)cc(Cl)c1)C(Sc1cccc[n+]1[O-])c1ccccc1` (stereo unspecified), the inhibition entry in assay [1], in assay [2], in assay [3] and in assay [4] was “Active” each time.
Take `Cc1cc(C)nc(NS(=O)(=O)c2ccc(NC(=O)NC(=O)c3ccc(Cl)cc3Cl)cc2)n1`: the inhibition entry in assay [1], in assay [2], in assay [3] and in assay [4] was “Active” throughout. For the same compound, in assay [5], the Activity entry is “Dose-dependent effect”. In addition, the Ratio in assay [6] is 1.1.
With `Cc1ccc(NC(=O)C(Sc2cccc[n+]2[O-])c2ccccc2)cc1Cl` (stereo unspecified), in assay [7], the midpoint of inhibition, the IC50, lay at 100 µM.
